Measurements from the supplement of paper PMC10307832.

Legend:
Assay in all cases: relative viability (nuclei count vs DMSO), 5 days (fraction); higher = more cells survive
HARA = system: HARA
Summary of the method: (§1)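 A single step with final 0.05% Triton X-100, 1% formaldehyde and 1 ug/ml Hoechst fixed the cells and stained nuclei 5 days after treatment. Lung cancer cell lines in 1536-well plates had been treated by pin tool the day after seeding with one drug alone or a fixed anchor-drug dose plus five library-drug doses (not always all listed) in √10 steps, and nuclei were counted on 4× images. Relative viability is the ratio of nuclei in treated wells to nuclei in vehicle wells, taken as the median of duplicate plates.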

NCI-H2170 = system: NCI-H2170
Summary of the method: as §1

A-427 = system: A-427
Summary of the method: as §1

SK-MES-1 = system: SK-MES-1
Summary of the method: as §1

NCI-H2009 = system: NCI-H2009
Summary of the method: as §1

NCI-H2228 = system: NCI-H2228
Summary of the method: as §1

SW 1573 = system: SW 1573
Summary of the method: as §1

NCI-H1993 = system: NCI-H1993
Summary of the method: as §1

NCI-H522 = system: NCI-H522
Summary of the method: as §1

LK-2 = system: LK-2
Summary of the method: as §1

NCI-H322M = system: NCI-H322M
Summary of the method: as §1

HOP-62 = system: HOP-62
Summary of the method: as §1

NCI-H1792 = system: NCI-H1792
Summary of the method: as §1

ABC-1 = system: ABC-1
Summary of the method: as §1

LXF-289 = system: LXF-289
Summary of the method: as §1

SW 900 = system: SW 900
Summary of the method: as §1

EMC-BAC-2 = system: EMC-BAC-2
Summary of the method: as §1

NCI-H727 = system: NCI-H727
Summary of the method: as §1

NCI-H1944 = system: NCI-H1944
Summary of the method: as §1

NCI-H3122 = system: NCI-H3122
Summary of the method: as §1

PC-3 [JPC-3] = system: PC-3 [JPC-3]
Summary of the method: as §1

O=c1cc(-c2cccc3c2Sc2ccccc2S3)oc(N2CCOCC2)c1 + CC(=O)c1c(C)c2cnc(Nc3ccc(N4CCNCC4)cn3)nc2n(C2CCCC2)c1=O [Palbociclib] (partner 0.5 µM)
relative viability (HARA; first compound 0.08 µM): 0.253
relative viability (HARA; first compound 0.253 µM): 0.201
relative viability (HARA; first compound 0.8 µM): 0.241
relative viability (HARA; first compound 2.53 µM): 0.209
relative viability (HARA; first compound 8 µM): 0.266
relative viability (NCI-H2170; first compound 0.08 µM): 0.45
relative viability (NCI-H2170; first compound 0.253 µM): 0.482
relative viability (NCI-H2170; first compound 0.8 µM): 0.414
relative viability (NCI-H2170; first compound 2.53 µM): 0.354
relative viability (NCI-H2170; first compound 8 µM): 0.359
relative viability (A-427; first compound 0.08 µM): 0.513
relative viability (A-427; first compound 0.253 µM): 0.509
relative viability (A-427; first compound 0.8 µM): 0.49
relative viability (A-427; first compound 2.53 µM): 0.502
relative viability (A-427; first compound 8 µM): 0.548
relative viability (SK-MES-1; first compound 0.08 µM): 0.311
relative viability (SK-MES-1; first compound 0.253 µM): 0.321
relative viability (SK-MES-1; first compound 0.8 µM): 0.313
relative viability (SK-MES-1; first compound 2.53 µM): 0.294
relative viability (SK-MES-1; first compound 8 µM): 0.286
relative viability (NCI-H2009; first compound 0.08 µM): 0.189
relative viability (NCI-H2009; first compound 0.253 µM): 0.232
relative viability (NCI-H2009; first compound 0.8 µM): 0.225
relative viability (NCI-H2009; first compound 2.53 µM): 0.199
relative viability (NCI-H2009; first compound 8 µM): 0.213
relative viability (NCI-H2228; first compound 0.08 µM): 0.766
relative viability (NCI-H2228; first compound 0.253 µM): 0.766
relative viability (NCI-H2228; first compound 0.8 µM): 0.901
relative viability (NCI-H2228; first compound 2.53 µM): 0.608
relative viability (NCI-H2228; first compound 8 µM): 0.758
relative viability (SW 1573; first compound 0.08 µM): 0.426
relative viability (SW 1573; first compound 0.253 µM): 0.414
relative viability (SW 1573; first compound 0.8 µM): 0.448
relative viability (SW 1573; first compound 2.53 µM): 0.377
relative viability (SW 1573; first compound 8 µM): 0.362
relative viability (NCI-H1993; first compound 0.08 µM): 0.632
relative viability (NCI-H1993; first compound 0.253 µM): 0.674
relative viability (NCI-H1993; first compound 0.8 µM): 0.526
relative viability (NCI-H1993; first compound 2.53 µM): 0.599
relative viability (NCI-H1993; first compound 8 µM): 0.709
relative viability (NCI-H522; first compound 0.08 µM): 1.13
relative viability (NCI-H522; first compound 0.253 µM): 1.07
relative viability (NCI-H522; first compound 0.8 µM): 1.01
relative viability (NCI-H522; first compound 2.53 µM): 1.04
relative viability (NCI-H522; first compound 8 µM): 1
relative viability (LK-2; first compound 0.08 µM): 0.515
relative viability (LK-2; first compound 0.253 µM): 0.8
relative viability (LK-2; first compound 0.8 µM): 0.637
relative viability (LK-2; first compound 2.53 µM): 0.767
relative viability (LK-2; first compound 8 µM): 0.881
relative viability (NCI-H322M; first compound 0.08 µM): 0.453
relative viability (NCI-H322M; first compound 0.253 µM): 0.474
relative viability (NCI-H322M; first compound 0.8 µM): 0.502
relative viability (NCI-H322M; first compound 2.53 µM): 0.449
relative viability (NCI-H322M; first compound 8 µM): 0.475
relative viability (HOP-62; first compound 0.08 µM): 0.465
relative viability (HOP-62; first compound 0.253 µM): 0.391
relative viability (HOP-62; first compound 0.8 µM): 0.497
relative viability (HOP-62; first compound 2.53 µM): 0.512
relative viability (HOP-62; first compound 8 µM): 0.54
relative viability (NCI-H1792; first compound 0.08 µM): 0.673
relative viability (NCI-H1792; first compound 0.253 µM): 0.847
relative viability (NCI-H1792; first compound 0.8 µM): 0.635
relative viability (NCI-H1792; first compound 2.53 µM): 0.654
relative viability (NCI-H1792; first compound 8 µM): 0.688
relative viability (ABC-1; first compound 0.08 µM): 1.04
relative viability (ABC-1; first compound 0.253 µM): 0.836
relative viability (ABC-1; first compound 0.8 µM): 0.474
relative viability (ABC-1; first compound 2.53 µM): 0.767
relative viability (ABC-1; first compound 8 µM): 0.674
relative viability (LXF-289; first compound 0.08 µM): 0.61
relative viability (LXF-289; first compound 0.253 µM): 0.603
relative viability (LXF-289; first compound 0.8 µM): 0.609
relative viability (LXF-289; first compound 2.53 µM): 0.619
relative viability (LXF-289; first compound 8 µM): 0.642
relative viability (SW 900; first compound 0.253 µM): 0.557
relative viability (SW 900; first compound 0.8 µM): 0.555
relative viability (SW 900; first compound 2.53 µM): 0.492
relative viability (SW 900; first compound 8 µM): 0.469
relative viability (EMC-BAC-2; first compound 0.08 µM): 0.511
relative viability (EMC-BAC-2; first compound 0.253 µM): 0.529
relative viability (EMC-BAC-2; first compound 0.8 µM): 0.536
relative viability (EMC-BAC-2; first compound 2.53 µM): 0.538
relative viability (EMC-BAC-2; first compound 8 µM): 0.543
relative viability (NCI-H727; first compound 0.08 µM): 0.613
relative viability (NCI-H727; first compound 0.253 µM): 0.813
relative viability (NCI-H727; first compound 2.53 µM): 0.512
relative viability (NCI-H727; first compound 8 µM): 0.613
relative viability (NCI-H1944; first compound 0.08 µM): 0.313
relative viability (NCI-H1944; first compound 0.253 µM): 0.329
relative viability (NCI-H1944; first compound 0.8 µM): 0.302
relative viability (NCI-H1944; first compound 2.53 µM): 0.335
relative viability (NCI-H1944; first compound 8 µM): 0.318
relative viability (NCI-H3122; first compound 0.08 µM): 0.169
relative viability (NCI-H3122; first compound 0.253 µM): 0.2
relative viability (NCI-H3122; first compound 0.8 µM): 0.208
relative viability (NCI-H3122; first compound 2.53 µM): 0.188
relative viability (NCI-H3122; first compound 8 µM): 0.192
relative viability (PC-3 [JPC-3]; first compound 0.08 µM): 0.471
relative viability (PC-3 [JPC-3]; first compound 0.253 µM): 0.54
relative viability (PC-3 [JPC-3]; first compound 0.8 µM): 0.559
relative viability (PC-3 [JPC-3]; first compound 2.53 µM): 0.482
relative viability (PC-3 [JPC-3]; first compound 8 µM): 0.584
